Measured values taken from US9440964B2, “Pesticidal compositions and processes related thereto” (Dow AgroSciences LLC, priority 2011, dated 2016).
Where two headings read alike, the source gives them in different places.

How the values were obtained:
[1] = system: BAW (Spodoptera exigua); assay: Bioassay on Beet Armyworm (BAW), 128-well diet tray; type: in vivo; details: Spodoptera exigua, 168 h, read-out: Rating BAW
Description: (§1) Certain molecules disclosed in this document were tested against BAW and CEW using procedures described in the following examples. In the reporting of the results, the “BAW & CEW Rating Table” was used (See Table Section).
Bioassays on BAW (Spodoptera exigua)
(§2) Trays were covered with a clear self-adhesive cover and held at 25° C., 14:10 light-dark for five to seven days. Percent mortality was recorded for the larvae in each well; activity in the eight wells was then averaged. The results are indicated in the table entitled “Table ABC: Biological Results” (See Table Section).

[2] = system: CEW (Helicoverpa zea); assay: Bioassay on Corn Earworm (CEW), 128-well diet tray; type: in vivo; details: Helicoverpa zea, 168 h, percent mortality, second instar larvae, five to seven days; for pest or weed control at 50 µg/cm2: 50 μg/cm^2 on diet, read-out: Rating CEW; for pest or weed control at 0.5 µg/cm2: 0.5 μg/cm^2 on diet, read-out: Rating CEW (*Tested at 0.5 μg/cm^2)
Description: as §1
Bioassays on CEW (Helicoverpa zea)
as §2

[3] = percent mortality, second instar larvae, 50 μg/cm^2 on diet, five to seven days

Compound | pest or weed control at 50 µg/cm2 [1, 3] | pest or weed control at 50 µg/cm2 [2] | pest or weed control at 0.5 µg/cm2 [2] | pest or weed control at 50 µg/cm2 [1]
CC(C)c1ccccc1N/C(S)=N/C(=O)Nc1ccc(-c2ncn(-c3ccc(OC(F)(F)C(F)(F)F)cc3)n2)cc1 [Molecule A112] | 50 to 100% | – | – | –
Cc1ccccc1NC(=O)NC(=O)Nc1ccc(-c2ncn(-c3ccc(OC(F)(F)F)cc3)n2)cc1 [Molecule A51] | 50 to 100% | 50 to 100% | – | –
CC(C)c1ccc(F)cc1N1C(=O)CS/C1=N\C(=O)Nc1ccc(-c2ncn(-c3ccc(OC(F)(F)F)cc3)n2)cc1 [Molecule A86] | 50 to 100% | – | 50 to 100% | –
Cc1cccc(C)c1N/C(S)=N/C(=O)Nc1ccc(-c2ncn(-c3ccc(C(F)(F)F)cc3)n2)cc1 [Molecule A12] | 50 to 100% | 50 to 100% | – | –
CC(C)n1nccc1N/C(S)=N/C(=O)Nc1ccc(-c2ncn(-c3ccc(OC(F)(F)F)cc3)n2)cc1 [Molecule A119] | 50 to 100% | – | 0 to 50% | –
Cc1c(F)cccc1N1C(=O)CS/C1=N\C(=O)Nc1ccc(-c2ncn(-c3ccc(OC(F)(F)F)cc3)n2)cc1 [Molecule A93] | 50 to 100% | – | 50 to 100% | –
Cc1cccc(N2C(=O)CS/C2=N\C(=O)Nc2ccc(-c3ncn(-c4ccc(OC(F)(F)F)cc4)n3)cc2)c1C(C)C [Molecule A108] | 50 to 100% | – | 50 to 100% | –
Cc1ccccc1N/C(S)=C/C(=O)Nc1ccc(-c2ncn(-c3ccc(OC(F)(F)F)cc3)n2)cc1 [Molecule A22, 3-thioxo-3-(o-tolylamino)-N-(4-(1-(4-(trifluoromethoxy)phenyl)-1H-1,2,4-triazol-3-yl)phenyl)propanamide] | 50 to 100% | 50 to 100% | – | –
O=C(/N=C1\SCC(=O)N1c1ccccc1Cc1ccccc1)Nc1ccc(-c2ncn(-c3ccc(OC(F)(F)F)cc3)n2)cc1 [Molecule A105] | 50 to 100% | – | 50 to 100% | –
Cc1cccc(C)c1-n1c(C)cs/c1=N\C(=O)Nc1ccc(-c2ncn(-c3ccc(OC(F)(F)F)cc3)n2)cc1 [Molecule A42] | 0 to 50% | – | – | –
Cc1cccc(N/C(S)=N/C(=O)Nc2ccc(-c3ncn(-c4ccc(OC(F)(F)F)cc4)n3)cc2)c1C(C)C [Molecule A106] | 50 to 100% | – | 50 to 100% | –
CCc1cccc(C)c1N/C(=N\C(=O)Nc1ccc(-c2ncn(-c3ccc(OC(F)(F)F)cc3)n2)cc1)SCOC(=O)C(C)C [Molecule A55] | 50 to 100% | 50 to 100% | – | –
CC(C)c1ccccc1N1C(=O)CS/C1=C\C(=O)Nc1ccc(-c2ncn(-c3ccc(OC(F)(F)F)cc3)n2)cc1 [Molecule A24, (Z)-2-(3-(2-isopropylphenyl)-4-oxothiazolidin-2-ylidene)-N-(4-(1-(4-(trifluoromethoxy)phenyl)-1H-1,2,4-triazol-3-yl)phenyl)acetamide] | 50 to 100% | 50 to 100% | – | –
Cc1cc(C)cc(N/C(S)=N/C(=O)Nc2ccc(-c3ncn(-c4ccc(OC(F)(F)F)cc4)n3)cc2)c1 [Molecule A100] | 50 to 100% | – | 50 to 100% | –
CCc1cccc(C)c1N1C(=O)CS/C1=N\C(=O)Nc1ccc(-c2ncn(-c3ccc(OC(F)(F)F)cc3)n2)cc1 [Molecule A103] | 50 to 100% | – | 50 to 100% | –
Cc1ccc(Cl)cc1N/C(S)=N/C(=O)Nc1ccc(-c2ncn(-c3ccc(OC(F)(F)F)cc3)n2)cc1 [Molecule A72] | 50 to 100% | – | 50 to 100% | –
CC(=O)/C(C(=O)Nc1ccc(-c2ncn(-c3ccc(OC(F)(F)F)cc3)n2)cc1)=C(/S)Nc1ccccc1C(C)C [Molecule A20, (E)-3-hydroxy-2-((2-isopropylphenyl)carbamothioyl)-N-(4-(1-(4-(trifluoromethoxy)phenyl)-1H-1,2,4-triazol-3-yl)phenyl)but-2-enamide] | 50 to 100% | 50 to 100% | – | –
CC(C)c1cccc(Cl)c1N/C(S)=N/C(=O)Nc1ccc(-c2ncn(-c3ccc(OC(F)(F)F)cc3)n2)cc1 [Molecule A81] | 50 to 100% | 50 to 100% | – | –
Cc1cc(C)c(N2C(=O)CS/C2=N\C(=O)Nc2ccc(-c3ncn(-c4ccc(OC(F)(F)F)cc4)n3)cc2)c(C)c1 [Molecule A36] | 50 to 100% | 50 to 100% | – | –

Compound | pest or weed control at 50 µg/cm2 [1, 3] | pest or weed control at 50 µg/cm2 [2] | pest or weed control at 0.5 µg/cm2 [2] | pest or weed control at 50 µg/cm2 [1]
Cc1cccc(C)c1N/C(S)=C(\C#N)C(=O)Nc1ccc(-c2ncn(-c3ccc(OC(F)(F)F)cc3)n2)cc1 [Molecule A28, (Z)-2-Cyano-3-mercapto-3-((2,6-dimethylphenyl)amino)-N-(4-(1-(4-(trifluoromethoxy)phenyl)-1H-1,2,4-triazol-3-yl)phenyl)acrylamide] | – | 50 to 100% | – | –
Cc1ccc(F)c(N/C(S)=N/C(=O)Nc2ccc(-c3ncn(-c4ccc(OC(F)(F)F)cc4)n3)cc2)c1 [Molecule A89] | 50 to 100% | – | 50 to 100% | –
Cc1ccc(Cl)cc1N1C(=O)CS/C1=N\C(=O)Nc1ccc(-c2ncn(-c3ccc(OC(F)(F)F)cc3)n2)cc1 [Molecule A76] | 50 to 100% | – | 50 to 100% | –
Cc1ccc(F)c(N2C(=O)CS/C2=N\C(=O)Nc2ccc(-c3ncn(-c4ccc(OC(F)(F)F)cc4)n3)cc2)c1 [Molecule A94] | 50 to 100% | – | 50 to 100% | –
COc1ccc(Cl)cc1N1C(=O)CS/C1=N\C(=O)Nc1ccc(-c2ncn(-c3ccc(OC(F)(F)F)cc3)n2)cc1 [Molecule A111] | 50 to 100% | – | 50 to 100% | –
CC(C)c1ccccc1N1C(=O)CS/C1=N\C(=O)Nc1ccc(-c2ncn(-c3ccc(OC(F)(F)C(F)(F)F)cc3)n2)cc1 [Molecule A115] | 50 to 100% | – | 50 to 100% | –
Cc1cccc(N/C(S)=N/C(=O)Nc2ccc(-c3ncn(-c4ccc(OC(F)(F)F)cc4)n3)cc2)c1C [Molecule A71] | 50 to 100% | – | – | –
CCC1CS/C(=N\C(=O)Nc2ccc(-c3ncn(-c4ccc(OC(F)(F)F)cc4)n3)cc2)N1c1c(C)cc(C)cc1C (centres unmarked) [Molecule A38] | 50 to 100% | 50 to 100% | – | –
CC(C)c1ccccc1N/C(S)=N/C(=O)Nc1ccc(-c2ncn(-c3ccc(C(F)(F)C(F)(F)C(F)(F)F)cc3)n2)cc1 [Molecule A113] | – | – | – | 50 to 100%
COc1ccc(N/C(=N/C(=O)Nc2ccc(-c3ncn(-c4ccc(OC(F)(F)F)cc4)n3)cc2)SCS[C@@H]2O[C@@H](C)[C@H](OC)[C@@H](OC)[C@H]2OC)c(C)c1 [Molecule A10, (Z)-(((2S,3R,4R,5S,6S)-3,4,5-Trimethoxy-6-methyltetrahydro-2H-pyran-2-yl)thio)methyl N-(4-methoxy-2-methylphenyl)-N′-((4-(1-(4-(trifluoromethoxy)phenyl)-1H-1,2,4-triazol-3-yl)phenyl)carbamoyl) carbamimidothioate] | 50 to 100% | 50 to 100% | – | –
Cc1ccc(C(C)C)c(N/C(S)=N/C(=O)Nc2ccc(-c3ncn(-c4ccc(OC(F)(F)F)cc4)n3)cc2)c1 [Molecule A83] | 50 to 100% | – | – | –
O=C(/N=C1\SCC(=O)N1c1ccccc1C1CC1)Nc1ccc(-c2ncn(-c3ccc(OC(F)(F)F)cc3)n2)cc1 [Molecule A66] | 50 to 100% | – | – | –
CC(C)c1ccccc1N1C(=O)CS/C1=N\C(=O)Nc1ccc(-c2nnc(-c3ccc(OC(F)(F)C(F)(F)F)cc3)o2)cc1 [Molecule A102, (Z)-1-(3-(2-isopropylphenyl)-4-oxothiazolidin-2-ylidene)-3-(4-(5-(4-(perfluoroethoxy)phenyl)-1,3,4-oxadiazol-2-yl)phenyl)urea] | – | – | 50 to 100% | –
CC(C)(C)c1ccccc1N1C(=O)CS/C1=N\C(=O)Nc1ccc(-c2ncn(-c3ccc(OC(F)(F)F)cc3)n2)cc1 [Molecule A95] | – | – | 50 to 100% | –
N#C/C(C(=O)Nc1ccc(-c2ncn(-c3ccc(OC(F)(F)F)cc3)n2)cc1)=C(/S)Nc1ccccc1-c1ccccc1 [Molecule A27, (Z)-3-([1,1′-Biphenyl]-2-ylamino)-2-cyano-3-mercapto-N-(4-(1-(4-(trifluoromethoxy)phenyl)-1H-1,2,4-triazol-3-yl)phenyl)acrylamide] | – | 0 to 50% | – | –
CC(C)c1ccccc1N/C(S)=N/C(=O)Nc1ccc(-c2nnc(-c3ccc(OC(F)(F)C(F)(F)F)cc3)o2)cc1 [Molecule A96, N-[[(2-isopropyllphenyl)amino]thioxomethyl]-N′-((4-(5-(4-(perfluoroethoxy)phenyl)-1,3,4-oxadiazol-2-yl)phenyl))urea] | 50 to 100% | – | – | –
Cc1cc(C)c(-n2c(C)cs/c2=N\C(=O)Nc2ccc(-c3ncn(-c4ccc(OC(F)(F)F)cc4)n3)cc2)c(C)c1 [Molecule A43, (Z)-1-(3-mesityl-4-methylthiazol-2(3H)-ylidene)-3-(4-(1-(4-(trifluoromethoxy)phenyl)-1H-1,2,4-triazol-3-yl)phenyl)urea] | – | 50 to 100% | – | –
Cc1cc(C)cc(N2C(=O)CS/C2=N\C(=O)Nc2ccc(-c3ncn(-c4ccc(OC(F)(F)F)cc4)n3)cc2)c1 [Molecule A104] | – | – | 50 to 100% | –
CC(C)c1ccccc1N/C(S)=C(\C#N)C(=O)Nc1ccc(-c2ncn(-c3ccc(OC(F)(F)F)cc3)n2)cc1 [Molecule A25, (Z)-2-cyano-3-((2-isopropylphenyl)amino)-3-mercapto-N-(4-(1-(4-(trifluoromethoxy)phenyl)-1H-1,2,4-triazol-3-yl)phenyl)acrylamide] | – | 0 to 50% | – | –
